Data: patent US8455665B2, “3-phenoxymethylpyrrolidine compounds” (Theravance, Inc., priority 2009, dated 2013)

Assays:
SERT and NET = settings: cited from earlier work
NET [1] = biological target: T1, NET (Homo sapiens, UniProt P23975); assay: hNET membrane radioligand binding assay (3H-nisoxetine); design: expressed in transfected cells; host or cells: HEK-293; settings: hNET membranes (HEK-293), 1.0 nM 3H-nisoxetine; for Ki: read-out: NET pKi (converted)
Procedure, shortened: (§1)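 HEK-293 membranes stably expressing hNET or hSERT; inhibition of ³H-nisoxetine (hNET) or ³H-citalopram (hSERT) binding in 50 mM Tris-HCl, 120 mM NaCl, 5 mM KCl, pH 7.4, 60 min at 22 °C. Filtration, scintillation counting; nonspecific with 1 μM desipramine (NET) or 1 μM duloxetine (SERT). pKi via Cheng-Prusoff from IC50 and radioligand Kd.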

SERT [2] = biological target: T2, SERT (Homo sapiens, UniProt P31645); assay: hSERT neurotransmitter uptake assay (3H-5-HT); format: cell-based; design: expressed in transfected cells; host or cells: HEK-293; settings: serotonin reuptake inhibition, HEK-293 hSERT cells, 3H-5-HT (no asterisk); for IC50: read-out: SERT pIC50 (converted)
T2 sequence (P31645 whole entry): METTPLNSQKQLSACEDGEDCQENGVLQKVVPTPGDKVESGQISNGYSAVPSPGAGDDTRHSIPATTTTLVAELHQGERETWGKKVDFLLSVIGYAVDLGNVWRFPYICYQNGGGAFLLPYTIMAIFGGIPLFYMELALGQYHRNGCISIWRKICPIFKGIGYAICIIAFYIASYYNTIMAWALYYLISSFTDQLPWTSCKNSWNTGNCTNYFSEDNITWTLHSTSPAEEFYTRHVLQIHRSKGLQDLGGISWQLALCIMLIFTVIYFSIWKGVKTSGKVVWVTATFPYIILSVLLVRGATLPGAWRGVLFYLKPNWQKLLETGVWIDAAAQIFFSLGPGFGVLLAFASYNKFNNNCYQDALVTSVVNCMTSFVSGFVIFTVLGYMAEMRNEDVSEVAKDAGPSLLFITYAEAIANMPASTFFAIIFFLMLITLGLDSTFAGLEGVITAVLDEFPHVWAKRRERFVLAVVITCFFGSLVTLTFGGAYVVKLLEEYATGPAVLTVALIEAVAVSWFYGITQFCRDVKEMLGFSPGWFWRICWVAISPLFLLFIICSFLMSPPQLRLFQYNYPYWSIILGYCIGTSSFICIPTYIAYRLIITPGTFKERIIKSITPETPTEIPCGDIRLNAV
Protocol: (§2) Neurotransmitter uptake assays were used to measure inhibition of ^3H-serotonin (^3H-5-HT), ^3H-norepinephrine (^3H-NE), and ^3H-dopamine (^3H-DA) uptake into cells expressing the respective transporter (hSERT, hNET or hDAT) in order to determine the pIC50 values of test compounds at the transporters.
(§3) HEK-293 derived cell lines stably-transfected with hSERT, hNET, or hDAT, respectively, were grown in DMEM medium supplemented with 10% dialyzed FBS (for hSERT) or FBS (for hNET and hDAT), 100 μg/ml penicillin, 100 μg/ml streptomycin, 2 mM L-glutamine and 250 μg/ml of the aminoglycoside antibiotic G418 (for hSERT and hNET) or 800 ug/ml (for hDAT), in a 5% CO2 humidified incubator at 37° C. When cultures reached 80% confluence, the cells were washed thoroughly in PBS (without Ca^2+ and Mg^2+) and lifted with 5 mM EDTA in PBS. Cells were harvested by centrifugation at 1100 rpm for 5 minutes, washed once by resuspension in PBS, then centrifuged. The supernatant was discarded and the cell pellet resuspended, by gentle trituration, in room temperature Krebs-Ringer bicarbonate buffer containing HEPES (10 mM), CaCl2 (2.2 mM), ascorbic acid (200 μM) and pargyline (200 μM), pH 7.4. The final concentration of cells in the cell suspension was 7.5×10^4 cells/ml, 1.25×10^5 cells/ml, and 5.0×10^4 cells/ml for SERT, NET, and DAT cell lines, respectively.
(§4) Neurotransmitter uptake assays were performed in a 96-well assay plate in a total volume of 400 μl assay buffer (Krebs-Ringer bicarbonate buffer containing HEPES (10 mM), CaCl2 (2.2 mM), ascorbic acid (200 μM) and pargyline (200 μM), pH 7.4) with 1.5×10^4 and 2.5×10^4 cells, for SERT, NET, and DAT, respectively. […] Stock solutions (10 mM in DMSO) of test compound were prepared and serial dilutions prepared using 50 mM Tris-HCl, 120 mM NaCl, 5 mM KCl, pH 7.4, 0.1% BSA, 400 μM ascorbic acid. Test compounds were incubated for 30 minutes at 37° C. with the respective cells, prior to addition of radiolabeled neurotransmitter, ^3H-5-HT (20 nM final concentration), ^3H-NE (50 nM final concentration) or ^3H-DA (100 nM final concentration). Non-specific neurotransmitter uptake was determined in the presence of 2.5 μM duloxetine, 2.5 μM desipramine, or 10 uM GBR-12909 (each in Dilution Buffer) for the hSERT, hNET, or hDAT assays, respectively.
(§5) Following a 10 minute incubation, at 37° C., with radioligand, the cells were harvested by rapid filtration over a 96-well UniFilter GF/B plate, pretreated with 1% BSA, and washed 6 times with 650 μl wash buffer (ice cold PBS). Plates were dried overnight at 37° C., ˜45 μl of MicroScint™-20 (Perkin Elmer) added and incorporated radioactivity quantitated via liquid scintillation spectroscopy Inhibition curves were analyzed using GraphPad Prism Software package (GraphPad Software, Inc., San Diego, Calif.). IC50 values were generated from concentration response curves using the Sigmoidal Dose Response (variable slope) algorithm in Prism GraphPad.

NET [3] = biological target: T1, NET; assay: hNET neurotransmitter uptake assay (3H-NE); format: cell-based; design: expressed in transfected cells; host or cells: HEK-293; settings: norepinephrine reuptake inhibition, HEK-293 hNET cells, 3H-NE (no asterisk); for IC50: read-out: NET pIC50 (converted)
Protocol: as §2, §3, §4, §5

SERT [4] = biological target: T2, SERT; assay: hSERT membrane radioligand binding assay (3H-citalopram); design: expressed in transfected cells; host or cells: HEK-293; settings: hSERT membranes (HEK-293), 1.0 nM 3H-citalopram; for Ki: read-out: SERT pKi (converted)
Procedure, shortened: as §1

T1 sequence (P23975 whole entry): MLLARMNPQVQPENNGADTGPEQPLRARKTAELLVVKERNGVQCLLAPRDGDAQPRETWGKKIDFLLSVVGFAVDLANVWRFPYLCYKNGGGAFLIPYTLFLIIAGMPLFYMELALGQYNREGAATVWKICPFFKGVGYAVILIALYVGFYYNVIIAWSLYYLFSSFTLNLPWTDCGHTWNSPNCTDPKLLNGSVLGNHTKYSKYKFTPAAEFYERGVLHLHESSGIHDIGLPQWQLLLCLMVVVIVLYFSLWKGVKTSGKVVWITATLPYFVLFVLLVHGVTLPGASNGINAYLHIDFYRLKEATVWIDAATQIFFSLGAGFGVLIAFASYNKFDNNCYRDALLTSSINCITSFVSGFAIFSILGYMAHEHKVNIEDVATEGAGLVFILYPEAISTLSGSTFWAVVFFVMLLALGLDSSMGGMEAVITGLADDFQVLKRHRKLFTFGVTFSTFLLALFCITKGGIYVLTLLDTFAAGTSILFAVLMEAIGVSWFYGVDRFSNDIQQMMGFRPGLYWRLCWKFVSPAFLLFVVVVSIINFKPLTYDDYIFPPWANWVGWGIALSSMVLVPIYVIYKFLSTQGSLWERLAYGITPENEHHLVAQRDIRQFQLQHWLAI

Row | SMILES | Ki (NET [1]) [nM] | IC50 (SERT [2]) [nM] | IC50 (NET [3]) [nM] | Ki (SERT [4]) [nM] | also measured
1 | CCN(CC)C(=O)C1(c2ccccc2)CC1CN (stereo not drawn) [milnacipran] | – | – | – | – | selectivity (measured as pKi) for SERT over NET (SERT and NET): 2.5 fold
2 | CNCC[C@H](Oc1cccc2ccccc12)c1cccs1 [duloxetine] | – | – | – | – | affinity for SERT relative to NET (SERT and NET; Vaishnavi et al. (2004)): higher affinity for SERT relative to NET; selectivity (measured as pKi) for SERT over NET (SERT and NET): 10 fold
3 | Clc1cc(Cl)cc(O[C@H](C2CCOCC2)[C@@H]2CCNC2)c1 [Example 13-29, (R)-3-[(R)-(3,5-Dichlorophenoxy)(tetrahydropyran-4-yl)methyl]pyrrolidine] | ≤ 10 | ≤ 100 | ≤ 100 | ≤ 10 | –
4 | COC[C@H](Oc1cccc(Cl)c1C(F)(F)F)[C@H]1CCNC1 [Example 4-21, (S)-3-[(R)-1-(3-Chloro-2-trifluoromethylphenoxy)-2-methoxyethyl]pyrrolidine] | ≤ 10 | ≤ 100 | ≤ 10 | ≤ 10 | –
5 | COC[C@@H](Oc1cccc(F)c1Cl)[C@H]1CCNC1 [Example 4-13, (S)-3-[(S)-1-(2-Chloro-3-fluorophenoxy)-2-methoxyethyl]pyrrolidine] | ≤ 10 | ≤ 100 | ≤ 100 | ≤ 10 | –
6 | COCCC(Oc1ccc(Cl)cc1C)C1CCNC1 (single isomer, unassigned) [5 (2nd peak)] | ≤ 10 | ≤ 10 | ≤ 10 | – | SERT pKi (SERT [4]): ≧8.0
7 | Fc1cccc(O[C@@H](C2CCOCC2)[C@@H]2CCNC2)c1Cl [Example 13-17, (R)-3-[(S)-(2-Chloro-3-fluorophenoxy)(tetrahydropyran-4-yl)methyl]pyrrolidine] | ≤ 10 | ≤ 10 | ≤ 10 | ≤ 10 | –
8 | Clc1ccc(O[C@@H](C2CCOCC2)[C@H]2CCNC2)c(Cl)c1 [Example 13-22, (S)-3-[(S)-(2,4-Dichlorophenoxy)(tetrahydropyran-4-yl)methyl]pyrrolidine] | ≤ 10 | ≤ 100 | ≤ 10 | ≤ 100 | –
9 | COCC(Oc1ccc(Cl)cc1C)C1CCNC1 (stereo not drawn) [Example 4-26, 3-[1-(4-Chloro-2-methylphenoxy)-2-methoxyethyl]pyrrolidine] | ≤ 10 | ≤ 100 | ≤ 10 | ≤ 10 | –
10 | COC[C@@H](Oc1ccc(Cl)cc1Cl)[C@H]1CCNC1 [Example 4-23, (S)-3-[(S)-1-(2,4-Dichlorophenoxy)-2-methoxyethyl]pyrrolidine] | ≤ 100 | ≤ 10 | ≤ 100 | ≤ 10 | –
11 | Clc1cccc(Cl)c1O[C@@H](C1CCOCC1)[C@H]1CCNC1 [Example 13-24, (S)-3-[(S)-(2,6-Dichlorophenoxy)(tetrahydropyran-4-yl)methyl]pyrrolidine] | ≤ 10 | ≤ 10 | ≤ 10 | ≤ 10 | –
12 | Clc1cccc(O[C@H](C2CCOCC2)[C@H]2CCNC2)c1Cl [Example 13-12, (S)-3-[(R)-(2,3-Dichlorophenoxy)(tetrahydropyran-4-yl)methyl]pyrrolidine] | ≤ 10 | ≤ 10 | ≤ 10 | ≤ 10 | –
13 | Clc1ccc(O[C@H](C2CCOCC2)[C@@H]2CCNC2)cc1 [Example 13-9, (R)-3-[(R)-(4-Chlorophenoxy)(tetrahydropyran-4-yl)methyl]pyrrolidine] | ≤ 10 | ≤ 10 | ≤ 10 | ≤ 10 | –
14 | CNCC[C@@H](Oc1ccccc1C)c1ccccc1 [Atomoxetine] | – | – | – | – | NET selective (SERT and NET): 10 fold
15 | COC[C@@H](Oc1cccc(Cl)c1C(F)(F)F)[C@H]1CCNC1 [Example 4-20, (S)-3-[(S)-1-(3-Chloro-2-trifluoromethylphenoxy)-2-methoxyethyl]pyrrolidine] | ≤ 10 | ≤ 100 | ≤ 10 | ≤ 10 | –
16 | COC[C@@H](Oc1cccc(Cl)c1Cl)[C@H]1CCNC1 [Example 4-9, (S)-3-[(S)-1-(2,3-Dichlorophenoxy)-2-methoxyethyl]pyrrolidine] | ≤ 10 | ≤ 10 | ≤ 10 | ≤ 10 | –
17 | FC(F)(F)c1c(Cl)cccc1O[C@H](C1CCOCC1)[C@@H]1CCNC1 [Example 13-20, (R)-3-[(R)-(3-Chloro-2-trifluoromethylphenoxy)(tetrahydropyran-4-yl)-methyl]-pyrrolidine] | ≤ 10 | ≤ 100 | ≤ 10 | ≤ 10 | –
18 | Fc1cccc(O[C@H](C2CCOCC2)[C@@H]2CCNC2)c1Cl [Example 13-16, (R)-3-[(R)-(2-Chloro-3-fluorophenoxy)(tetrahydropyran-4-yl)methyl]pyrrolidine] | ≤ 10 | ≤ 100 | ≤ 10 | ≤ 10 | –
19 | COC[C@@H](Oc1cccc(Cl)c1C)[C@H]1CCNC1 [Example 4-15, (S)-3-[(S)-1-(3-Chloro-2-methylphenoxy)-2-methoxyethyl]pyrrolidine] | ≤ 10 | ≤ 100 | ≤ 10 | ≤ 10 | –
20 | COC[C@H](Oc1cccc(Cl)c1Cl)[C@H]1CCNC1 [Example 4-10] | – | – | – | – | NET pKi (NET [1]): ≧8.0; SERT pIC50 (SERT [2]): ≧8.0; NET pIC50 (NET [3]): ≧8.0; SERT pKi (SERT [4]): ≧8.0
